Target: T1, Fructose-1,6-bisphosphatase 1 (Homo sapiens, UniProt P09467)
T1 sequence (P09467 whole entry): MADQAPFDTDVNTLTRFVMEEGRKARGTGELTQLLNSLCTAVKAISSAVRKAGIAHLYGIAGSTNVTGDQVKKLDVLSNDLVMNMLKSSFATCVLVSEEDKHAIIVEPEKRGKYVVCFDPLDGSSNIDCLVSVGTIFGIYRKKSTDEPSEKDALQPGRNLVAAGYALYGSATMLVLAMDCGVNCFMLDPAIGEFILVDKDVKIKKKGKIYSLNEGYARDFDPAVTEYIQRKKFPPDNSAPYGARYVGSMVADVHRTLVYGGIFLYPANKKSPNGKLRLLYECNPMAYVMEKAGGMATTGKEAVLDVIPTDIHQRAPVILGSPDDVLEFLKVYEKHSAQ
Experiment: Inhibition of human liver FBP1 incubated for 5 mins by fluorescence method

Row | Compound | IC50 [µM]
1 | O=c1cc(-c2ccccc2)oc2cc(O)c(O)c(O)c12 [BAICALEIN] | 29
2 | O=c1c(O)c(-c2ccc(O)cc2)oc2c(O)c(O)cc(O)c12 [HERBACETIN] | 8.7
3 | Nc1ncnc2c1ncn2[C@@H]1O[C@H](COP(=O)(O)O)[C@@H](O)[C@H]1O [ADENOSINE PHOSPHATE] | 2.6
4 | O=c1c(O)c(-c2ccc(O)c(O)c2)oc2c(O)c(O)cc(O)c12 [GOSSYPETIN] | 24
5 | O=c1cc(-c2ccc(O)cc2)oc2cc(O)c(O)c(O)c12 [SCUTELLAREIN] | 38.2

Target: T2, Fructose-1,6-bisphosphatase 1 (Homo sapiens) (UniProt P09467)
T2 sequence (whole entry): T1 sequence (P09467 whole entry)
Experiment: Inhibition of human liver FBP1 at 200 uM incubated for 5 mins by fluorescence method relative to control

Row | Compound | inhibition [%]
6 | O=C(O)[C@H]1O[C@@H](Oc2cc3oc(-c4ccccc4)cc(=O)c3c(O)c2O)[C@H](O)[C@@H](O)[C@@H]1O | < 20
7 | O=c1cc(-c2ccccc2)oc2cc(O)ccc12 | < 20
8 | O=c1cc(-c2ccccc2)oc2cc(O)cc(O)c12 | < 20
9 | COc1ccc(-c2oc3c(O)c(O)ccc3c(=O)c2O)cc1OC | 33
10 | O=c1cc(-c2ccccc2)oc2cccc(O)c12 | < 20
11 | Oc1ccc(-c2[o+]c3c(O)c(O)cc(O)c3cc2O)cc1O | 46
12 | O=c1cc(-c2ccc(O)cc2)oc2cc(O)ccc12 | < 20
13 | O=c1cc(-c2ccc(O)c(O)c2)oc2c(Cl)c(O)cc(O)c12 | < 20
14 | O=c1cc(-c2ccc(O)c(O)c2)oc2ccccc12 | 25
15 | O=c1cc(-c2ccc(O)c(O)c2)oc2cccc(O)c12 | < 20
16 | O=c1cc(-c2ccc(O)cc2)oc2cccc(O)c12 | < 20
17 | O=c1cc(-c2ccccc2)oc2ccccc12 | < 20
18 | O=C1C[C@@H](c2ccc(O)cc2)Oc2cc(O)cc(O)c21 | < 20
19 | COc1ccc(-c2oc3c(OCc4ccccc4)c(OCc4ccccc4)ccc3c(=O)c2O)cc1OC | < 20
20 | COc1cc(-c2cc(=O)c3c(O)cc(O)cc3o2)ccc1O | < 20
21 | O=c1c(O)c(-c2ccc(O)cc2)oc2cc(O)cc(O)c12 | < 20
22 | COc1ccc(-c2oc3ccccc3c(=O)c2O)cc1OC | < 20
23 | O=c1cc(-c2ccc(O)cc2)oc2ccccc12 | < 20
24 | O=c1c(Cl)c(-c2ccc(O)c(O)c2)oc2c(Cl)c(O)cc(O)c12 | < 20
25 | C[C@@H]1O[C@@H](OC[C@H]2O[C@@H](Oc3c(-c4ccc(O)c(O)c4)oc4cc(O)cc(O)c4c3=O)[C@H](O)[C@@H](O)[C@@H]2O)[C@H](O)[C@H](O)[C@H]1O | < 20
26 | COc1ccc2c(=O)c(O)c(-c3ccc(OCc4ccccc4)c(OCc4ccccc4)c3)oc2c1OC | < 20
27 | COc1ccc(-c2cc(=O)c3c(O)cc(O)cc3o2)cc1 | < 20
28 | COc1ccc(-c2oc3cc(OC)ccc3c(=O)c2O)cc1 | < 20
29 | O=c1c(O)c(-c2ccc(O)c(O)c2)oc2ccccc12 | 20
30 | COc1ccc2c(=O)c(O)c(-c3ccc(O)c(O)c3)oc2c1OC | < 20
31 | O=c1c(O)c(-c2ccc(O)cc2O)oc2cc(O)cc(O)c12 | < 20

Row | Compound | inhibition [%]
32 | O=c1c(O)c(-c2cccc(O)c2)oc2cc(O)ccc12 | < 20
33 | O=c1cc(-c2ccc(O)c(O)c2)oc2cc(O)c(Cl)c(O)c12 | < 20
34 | COc1ccc(-c2cc(=O)c3c(O)cc(O)cc3o2)cc1OC | < 20
35 | O=c1c(Cl)c(-c2ccc(O)c(O)c2)oc2c(Cl)c(O)c(Cl)c(O)c12 | < 20
36 | O=c1cc(-c2cccc(O)c2)oc2cccc(O)c12 | < 20
37 | O=c1c(O)c(-c2cc(O)c(O)c(O)c2)oc2cc(O)cc(O)c12 | < 20
38 | O=c1cc(-c2ccc(O)c(O)c2)oc2cc(O)ccc12 | < 20
39 | O=c1c(O)c(-c2ccccc2)oc2cc(O)cc(O)c12 | < 20
40 | O=c1cc(-c2cccc(O)c2)oc2cc(O)ccc12 | < 20
41 | O=c1c(O)c(-c2ccc(O)c(O)c2)oc2c(O)c(O)ccc12 | < 20
42 | O=c1cc(-c2ccc(O)c(O)c2)oc2cc(O)cc(O)c12 | 22
43 | O=c1cc(-c2ccc(O)cc2)oc2cc(O)cc(O)c12 | < 20
44 | COc1cc2oc(-c3ccccc3)cc(=O)c2c(O)c1O | 46
45 | O=c1cc(-c2ccccc2)oc2c(O)c(O)cc(O)c12 | < 20
46 | O=c1c(O)c(-c2ccc(O)c(O)c2)oc2cc(O)cc(O)c12 | < 20
47 | O=c1c(O)c(-c2ccc(O)c(O)c2)oc2cc(O)c(O)c(O)c12 | 37
48 | O=c1c(O)c(-c2cccc(O)c2)oc2cc(O)cc(O)c12 | < 20
49 | O=c1c(Cl)c(-c2ccc(O)c(O)c2)oc2cc(O)cc(O)c12 | < 20
50 | O=c1c(O)c(-c2ccc(O)cc2)oc2cc(O)ccc12 | < 20
51 | O=C1c2c(O)cc(O)cc2O[C@H](c2ccc(O)c(O)c2)[C@H]1O | < 20
52 | COc1cccc(-c2oc3cc(OC)ccc3c(=O)c2O)c1 | < 20
53 | O=c1c(O)c(-c2ccc(O)c(O)c2)oc2c(O[C@@H]3O[C@H](CO)[C@@H](O)[C@H](O)[C@H]3O)c(O)cc(O)c12 | < 20
54 | COc1cc2oc(-c3ccccc3)cc(=O)c2c(OC)c1OC | < 20
55 | O=c1cc(-c2cccc(O)c2)oc2ccccc12 | < 20
56 | O=C1C[C@@H](c2ccc(O)c(O)c2)Oc2cc(O)cc(O)c21 | < 20
